Patent US8609643B2, “2-methylene-(20S,25R)-19,26-dinor-vitamin D analogs” (Wisconsin Alumni Research Foundation, priority 2007, dated 2013)

Assays:
HL-60 cells = assay: HL-60 cell differentiation (nitro blue tetrazolium reduction); assay type: cell-based, Human; conditions: for EC50: HL-60 differentiation into monocytes, FIG. 2
Method: The study drugs were dissolved in ethanol and the concentrations determined using UV spectrophotometry. Serial dilutions were prepared so that a range of drug concentrations could be tested without changing the final concentration of ethanol (≦0.2%) present in the cell cultures.
Human promyelocytic leukemia (HL60) cells were grown in RPMI-1640 medium containing 10% fetal bovine serum. The cells were incubated at 37° C. in the presence of 5% CO2.
HL60 cells were plated at 1.2×10^5 cells/ml. Eighteen hours after plating, cells in duplicate were treated with drug. Four days later, the cells were harvested and a nitro blue tetrazolium reduction assay was performed (Collins et al., 1979; J. Exp. Med. 149:969-974). The percentage of differentiated cells was determined by counting a total of 200 cells and recording the number that contained intracellular black-blue formazan deposits. Verification of differentiation to monocytic cells was determined by measuring phagocytic activity (data not shown).

[1] = test system: 24-hydroxylase (24Ohase) gene promoter; assay: In vitro transcription assay, luciferase reporter in ROS 17/2.8 (bone) cells; assay type: cell-based; conditions: ROS 17/2.8 cells, 24Ohase promoter-luciferase; FIG. 3; read-out: EC50, transcriptional activity in bone cells (24-hydroxylase gene)
Method: Transcription activity was measured in ROS 17/2.8 (bone) cells that were stably transfected with a 24-hydroxylase (24Ohase) gene promoter upstream of a luciferase reporter gene (Arbour et al., 1998). Cells were given a range of doses. Sixteen hours after dosing the cells were harvested and luciferase activities were measured using a luminometer.
RLU=relative luciferase units.

[2] = Bone calcium mobilization (serum calcium) in vitamin D-deficient rats; assay type: in vivo, Sprague-Dawley rats; conditions: ip
Method: (§1) Male, weanling Sprague-Dawley rats were placed on Diet 11 (0.47% Ca) diet+AEK oil for one week followed by Diet 11 (0.02% Ca)+AEK oil for 3 weeks. The rats were then switched to a diet containing 0.47% Ca for one week followed by two weeks on a diet containing 0.02% Ca. Dose administration began during the last week on 0.02% calcium diet. Four consecutive ip doses were given approximately 24 hours apart. Twenty-four hours after the last dose, blood was collected from the severed neck and the concentration of serum calcium determined as a measure of bone calcium mobilization. The first 10 cm of the intestine was also collected for intestinal calcium transport analysis using the everted gut sac method.

[3] = Intestinal calcium transport, everted gut sac method, vitamin D-deficient rats; assay type: in vivo, Sprague-Dawley rats; conditions: ip, FIGS. 5A and 5B
Method: as §1

| SMILES | EC50 (HL-60 cells) | EC50 [1] | serum calcium levels (bone calcium mobilization) ([2]; all dosages, rats on 0.02% Ca diet, FIGS. 4A and 4B) | intestinal calcium transport ([3]; 260 pmol/day) | EC50 (HL-60 cells; Homo sapiens) | potency on HL-60 cell differentiation relative to 1,25(OH)2D3 (times more potent) (HL-60 cells; versus 1,25(OH)2D3) | bone calcium mobilization (serum calcium) ([2]; 260 pmol/day for 4 consecutive days, rats on 0.02% Ca diet) | bone calcium mobilization (serum calcium) ([2]; 7020 pmol/day, rats on 0.02% Ca diet) | potency in mobilizing bone calcium relative to the native hormone (times less potent) ([2]; versus 1,25(OH)2D3, rats) | intestinal calcium transport ([3]; 7020 pmol/day) |
| --- | --- | --- | --- | --- | --- | --- | --- | --- | --- | --- |
| C=C1/C(=C\C=C2/CCC[C@]3(C)[C@@H]([C@H](C)CCCC(C)(C)O)CC[C@@H]23)C[C@@H](O)C[C@@H]1O [1,25(OH)2D3, 1α,25-dihydroxyvitamin D3, reference compound] | 2 nM | 0.2 nM | increased serum calcium levels at all dosages | promotes a significant increase | – | – | – | – | – | – |
| C=C1[C@H](O)CC(=C/C=C2\CCC[C@@]3(C)C2CC[C@@H]3[C@@H](C)CCC[C@@H](C)O)C[C@H]1O (stereo partly drawn) [SR1, 2-methylene-(20S,25R)-19,26-dinor-1α,25-dihydroxyvitamin D3] | – | 0.01 nM | – | promotes intestinal calcium transport only slightly | 0.1 nM | about 10 times | did not result in mobilization of bone calcium | without any substantial effect | approximately 30 times | significant intestinal calcium transport activity was recorded |
